# Assay results as given in US9518994B2, “Method for diagnosing and monitoring schizophrenia and tauopathies” (Ramot at Tel Aviv University, priority 2010, dated 2016).
# B1: recombinant ADNP: recombinant activity-dependent neuroprotective protein (protein, UniProt Q9H2P0 1-1102, looked up)
# Activity-dependent …: MFQLPVNNLGSLRKARKTVKKILSDIGLEYCKEHIEDFKQFEPNDFYLKNTTWEDVGLWDPSLTKNQDYRTKPFCCSACPFSSKFFSAYKSHFRNVHSEDFENRILLNCPYCTFNADKKTLETHIKIFHAPNASAPSSSLSTFKDKNKNDGLKPKQADSVEQAVYYCKKCTYRDPLYEIVRKHIYREHFQHVAAPYIAKAGEKSLNGAVPLGSNAREESSIHCKRCLFMPKSYEALVQHVIEDHERIGYQVTAMIGHTNVVVPRSKPLMLIAPKPQDKKSMGLPPRIGSLASGNVRSLPSQQMVNRLSIPKPNLNSTGVNMMSSVHLQQNNYGVKSVGQGYSVGQSMRLGLGGNAPVSIPQQSQSVKQLLPSGNGRSYGLGSEQRSQAPARYSLQSANASSLSSGQLKSPSLSQSQASRVLGQSSSKPAAAATGPPPGNTSSTQKWKICTICNELFPENVYSVHFEKEHKAEKVPAVANYIMKIHNFTSKCLYCNRYLPTDTLLNHMLIHGLSCPYCRSTFNDVEKMAAHMRMVHIDEEMGPKTDSTLSFDLTLQQGSHTNIHLLVTTYNLRDAPAESVAYHAQNNPPVPPKPQPKVQEKADIPVKSSPQAAVPYKKDVGKTLCPLCFSILKGPISDALAHHLRERHQVIQTVHPVEKKLTYKCIHCLGVYTSNMTASTITLHLVHCRGVGKTQNGQDKTNAPSRLNQSPSLAPVKRTYEQMEFPLLKKRKLDDDSDSPSFFEEKPEEPVVLALDPKGHEDDSYEARKSFLTKYFNKQPYPTRREIEKLAASLWLWKSDIASHFSNKRKKCVRDCEKYKPGVLLGFNMKELNKVKHEMDFDAEWLFENHDEKDSRVNASKTADKKLNLGKEDDSSSDSFENLEEESNESGSPFDPVFEVEPKISNDNPEEHVLKVIPEDASESEEKLDQKEDGSKYETIHLTEEPTKLMHNASDSEVDQDDVVEWKDGASPSESGPGSQQVSDFEDNTCEMKPGTWSDESSQSEDARSSKPAAKKKATMQGDREQLKWKNSSYGKVEGFWSKDQSQWKNASENDERLSNPQIEWQNSTIDSEDGEQFDNMTDGVAEPMHGSLAGVKLSSQQA
# Tests used:
# [1] = system: cerebellar granule neurons; conditions: cited from earlier work
# [2] = system: ADNP+/- mice; conditions: cited from earlier work
# [3] = system: tau transgenic mice; conditions: daily intranasal treatment over several months; cited from earlier work
# [4] = system: phosphorylated tau; conditions: 12-month-old mice, intranasal ~0.07 mg/kg/day for 3 months; cited from earlier work
# [5] = system: cancer cell division; conditions: unlike paclitaxel; cited from earlier work
# [6] = system: gestational day 8.0 mouse embryos; conditions: cited from earlier work
# [7] = system: astrocytes or neurons; conditions: cited from earlier work
# [8] = system: schizophrenia-related cognitive impairment; conditions: 5 mg once daily and 15 mg twice daily vs placebo, 56 patients; cited from earlier work
# [9] = system: known cell surface receptors; assay: Screening NAP on receptor panels; assay type: binding
# Experimental: Fluorescent NAP was found inside cells, in the vicinity of microtubules when it was incubated with cells at 4° C. and at low pH (conditions that exclude receptor-mediated endocytocis) (I. Divinski et al. J Biol Chem 279, 28531-28538 (2004)). Furthermore, NAP activity is independent of its chirality (D. E. Brenneman et al. J Pharmacol Exp Ther 309, 1190-1197 (2004)) and NAP shares sequence similarities with protein sequences that have membrane permeability properties (I. Divinski et al. J Biol Chem 279, 28531-28538 (2004)).
# [10] = system: Cortical neurons co-cultured with PEE astrocytes; conditions: cited from earlier work
# [11] = system: STOP+/- mice; conditions: daily nasal application; cited from earlier work
# [12] = system: anti-ADNP (NAP) antibody; conditions: incubation of antibody with excess NAP peptide; cited from earlier work
# [13] = system: amnestic MCI; conditions: 15 mg twice daily, intranasal, vs placebo; cited from earlier work
# [14] = system: primary neuronal cell cultures; conditions: cited from earlier work
# [15] = system: ADNP; conditions: 120 min 75% xenon and 25% oxygen vs 75% nitrogen and 25% oxygen; RT-PCR, western blot, immunohistochemistry; cited from earlier work
# [16] = system: β-tubulin; conditions: NAP affinity columns; cited from earlier work
# [17] = system: P19 cells; assay: P19 cell neuro-differentiation, Q-PCR of differentiation markers; assay type: cell-based, mouse; conditions: eight days differentiation, 1 μM RA; FIG. 2
# Experimental: Mouse Embryonic teratocarcinoma cells were obtained from the American Type Culture Collection (ATCC, Bethesda, Md.); an initial control batch was a kind gift of Dr. Roi Atlas and Professor Irith Ginzburg, the Weizmann Institute of Science, Rehovot, Israel. P19 cells were grown in minimal essential medium (alpha-MEM) containing 5% fetal calf serum, 100 U/ml penicillin and 0.1 mg/ml streptomycin (Biological Industries, Beit Haemek, Israel) in a 5% CO2 incubator at 37° C. […]
# Samples with same amount of total RNA were used to synthesize single-strand cDNA with SuperScript […] RNase H Reverse Transcriptase (Invitrogen, Carlsbad, Calif., USA) and a random hexamers adaptor primer according to the manufacturer's instructions. […] ADNP and ADNP2 expression levels in Schizophrenia were determined using specific primers for human ADNP and ADNP2, and normalized to TATA box binding protein. […] RNA from non-differentiated and differentiated P19 cells was isolated and the expression of tubulin β3 and glial fibrillary acidic protein (GFAP) was determined to confirm neuronal differentiation. ADNP and ADNP2 expression levels in P19 cells were determined using specific primers for mouse ADNP and ADNP2. […] The efficiencies of all primers used were calculated as a precursory step using standard curves, according to the equation: E (efficiency)=10^(−1/slope)−1×100 and were near 100% for all primers. […]
# [18] = system: ADNP; assay: Transgene shutoff by doxycycline in rTg(tau(P301L))4510 mice, western blots; assay type: in vivo, mouse; conditions: treated with doxycycline; untreated ratio is 3; FIG. 3D
# Experimental: Nuclear ADNP expression was assessed using mouse monoclonal antibody directed against ADNP (1:300 dilution; BD Bioscience) at 150 KD, actin was used as a control. […] C. […] Tau expression was measured in the cytoplasmic fraction; ADNP was measured in nuclear fractions. D. Western blots showing expression level of ADNP in transgenic and non-transgenic mice after doxycycline treatment.
# [19] = system: cell cultures; conditions: cited from earlier work
molecule,measurement,setting,value
CCO [ethanol],IC50,"[1]; by inhibiting NAP activation of Fyn kinase and Cas, read-out: IC(50), block of NAP-mediated axon outgrowth",17 mM
"CC[C@H](C)[C@H](NC(=O)[C@H](CO)NC(=O)[C@@H](NC(=O)[C@@H]1CCCN1C(=O)[C@H](C)NC(=O)[C@@H](N)CC(N)=O)C(C)C)C(=O)N1CCC[C@H]1C(=O)N[C@@H](CCC(N)=O)C(=O)O [NAP, Asn-Ala-Pro-Val-Ser-Ile-Pro-Gln]",cognitive deficits,[2]; 0.5 μg/mouse/day,partially ameliorated
same,tau hyperphosphorylation,[2]; 0.5 μg/mouse/day,reduced
same,amount of active GSK-3β,[2]; NAP treatment,reduced
same,axon outgrowth,"[1]; cerebellar granule neurons, via Fyn kinase and Cas phosphorylation",potentiated axon outgrowth
same,short-term memory,[3],improving
same,"tau phosphorylation and ""NFTs""",[3],reduced
same,decrease in phosphorylated tau at Ser202/Thr205 and Thr231 residues,[4],70%
same,cancer cell division,[5],does not affect
same,percentage of embryos that had begun to close their neural folds,[6]; co-incubation with ethanol and NAP,significantly increased
same,alcohol-induced serotonergic loss during brain development,"[6]; in vivo, caudal raphe",protected
same,microtubule depolymerization by nocodazole,[7]; neurons,reversed
same,tubulin zinc sheet formation and cell death,[7]; treatment with zinc chloride,protected
same,"UCSD Performance-based Skills Assessment (UPSA) test, secondary endpoint",[8],statistically significant positive treatment effect
same,tests that measured visual learning and working memory,[8],Numerical positive treatment effects
same,verbal learning,[8],favoring placebo
same,binding to known cell surface receptors,[9],did not reveal any significant binding
same,"dendritic and axonal growth or branching, density of synaptic structures",[10]; SNAP-25 and synaptophysin staining,significantly increased
same,CREB phosphorylation,[10],increase
same,activity of ERK and Akt,[10]; time-dependent,significantly stimulated
same,object recognition,[11],significantly improved to STOP+/+ performance level
same,open field locomotor activity,[11],significantly decreased
same,spatial memory,[11],ameliorated
same,reduction of fluorescence staining,[12],> 80%
same,cognitive tests that primarily assessed attention and working memory function,[13],general pattern of improvement
same,neurite outgrowth,[14],induced neurite outgrowth
[Xe] [xenon],ADNP expression in neonatal rat brain,[15],differentially expressed
CC(=O)O[C@H]1C(=O)[C@@]2(C)[C@H]([C@H](OC(=O)c3ccccc3)[C@]3(O)C[C@H](OC(=O)[C@H](O)[C@@H](NC(=O)c4ccccc4)c4ccccc4)C(C)=C1C3(C)C)[C@]1(OC(C)=O)CO[C@@H]1C[C@@H]2O [paclitaxel],NAP-tubulin interaction,[16],reduced
"CC1=C(/C=C/C(C)=C/C=C/C(C)=C/C(=O)O)C(C)(C)CCC1 [RA, all-trans retinoic acid]","glial fibrillar acidic protein (GFAP) expression, Q-PCR",[17],up-regulation
same,"tubulinβ3 expression, Q-PCR",[17],up-regulation
C[C@H]1c2cccc(O)c2C(=O)C2=C(O)[C@]3(O)C(=O)C(C(N)=O)=C(O)[C@@H](N(C)C)[C@@H]3[C@@H](O)[C@@H]21 [doxycycline],ADNP protein expression ratio between the Tg and non-Tg mice,[18],1
B1,protection against severe oxidative stress and Aβ toxicity,[19],potent protection
